# Data taken from US10980812B2, “3-(4-((4-(morpholinomethyl-benzyl)oxy)-1 -oxoisoindolin-2-yl)piperidine-2,6-dione for the treatment of systemic lupus erythematosus” (Celgene Corporation, priority 2014, dated 2021).
# Read-outs that look alike come from different tables or passages of the source.
# What was measured:
# [1] = test system: IL-1β; assay: Ex vivo IL-1β production in lipopolysaccharide-stimulated whole blood of dosed healthy volunteers; parameters: species or system human; settings: 12 hours postdose
# From the text: Whole blood was stimulated with lipopolysachharide and analyzed for IL-1β using the LPS TruCulture system (Part number 782-001087) by Myriad Rules Based Medicine (Austin, Tex.).
# [2] = test system: anti-dsDNA autoantibodies, SLE PBMC; assay: Anti-dsDNA autoantibody production in cultures of SLE PBMC (ELISA); type: cell-based; settings: Homo sapiens, N=9
# Protocol: (§1) PBMCs were purified from human buffy coats using Ficoll-Paque method. CD19+ B cells were isolated from PBMC by following EasySep Human B cell enrichment cocktail protocol (StemCell Technologies Catalog #19054). Fresh B cell cocktail was prepared by adding 50 μg/mL of human transferrin to B cell medium (Iscove's medium with 10% PFBS, 1% P/S, and 5 μg/mL human insulin). The required volume of medium needed for the experiment was filtered through a 0.22 micron filter. B cell differentiation cocktail (final concentration): recombinant human Interleukin (IL)-2 (20 U/mL), IL-10 (50 ng/mL), IL-15 (10 ng/mL), CD40 Ligand/TNFSF5/histidine-tagged (50 ng/mL), polyHistidine mouse IgG1 antibody (5 μg/mL), and ODN 2006-Human TLR9 ligand (10 μg/mL). CD19+ cells were pretreated with Compound 1A or a Syk inhibitor or 0.1% DMSO for 1 hr, then incubated with B-cell differentiation medium for indicated times.
# (§2) Whole blood samples from patients identified with SLE were obtained from Sanguine Biosciences; Inc. the blood was diluted with sterile Dulbecco's phosphate buffered saline solution (DPBS) and placed into three 50-mL conical tubes. […] Cell culture supernatants were harvested and analyzed for autoantibodies using an Anti-double stranded DNA antibody ELISA kit (Orgentec ORG 604S) and an Anti-Cardiolipin/Phospholipid ELISA kit (Orgentec ORG-529).
# [3] = test system: anti-phospholipid autoantibodies, SLE PBMC; assay: Anti-phospholipid autoantibody production in cultures of SLE PBMC (ELISA); type: cell-based; settings: Homo sapiens, N=8
# Protocol: as §1, §2
# [4] = test system: CD3+ T cells; assay: Peripheral blood T cell counts in healthy volunteers; type: in vivo, human
# Protocol: (§3) Healthy volunteers were administered placebo (n=10) or Compound 1A at doses of 0.03 mg, 0.1 mg, 0.3 mg, 1 mg, or 2 mg (N=6 each). Blood samples were drawn prior to dosing, or 3 hr, 12 hr, and 24 hr after dosing. Blood samples were lysed and fixed immediately by mixing 1 volume of blood with 20 volumes of 1× Lyse/Fix buffer (BD Biosciences, cat#558049) and mixing thoroughly by inverting the tube several times. This sample mix was incubated in a 37° C. water bath for 10 minutes, and the cells were pelleted by centrifugation at 800×g for 5 minutes to remove the supernatant by aspiration. The cells were washed twice with 2 mL of cold phosphate buffer saline (PBs), then permeabilized by adding 2 mL of cold BD Cytofix/cytoperm buffer and incubated on ice for 15 minutes. The cells were centrifuged than washed twice with BD perm/wash buffer, then resuspended in 40 ul of BD perm/wash buffer. Cells were stained with anti-CD3 or anti-CD19 antibody, and 20 ul of anti-Aiolos Ab (Santa Cruz Santa Cruz, rabbit polyclonal IgG, cat #sc-101982 at 1:200 dilution with staining buffer), or 20 uL of appropriate isotype controls to cells. Cells were mixed thoroughly and incubated at room temperature for 30 minutes in the dark, washed once with BD perm/wash buffer, then resuspended in 80 ul of BD perm/wash buffer, and 20 uL of secondary antibody was added before analysis on a flow cytometer.
# Absolute T cell counts in the peripheral blood were measured by flow cytometry with anti-CD3 antibody as described above.
# [5] = test system: CD19+ B cells; assay: Peripheral blood B cell counts in healthy volunteers; type: in vivo; settings: Homo sapiens
# Protocol: as §3, with “Blood samples were drawn prior to dosing, or 3 hr, 12 hr, and 24 hr after dosing.” left out
# Absolute B cell counts in the peripheral blood were measured by flow cytometry with anti-CD19 antibody as described above.
# [6] = test system: IL-2; assay: Ex vivo IL-2 production in anti-CD3-stimulated whole blood of dosed healthy volunteers; parameters: species or system human; settings: 12 hours postdose on Day 1
# From the text: Whole blood was stimulated with anti-CD3 antibody and analyzed for IL-2 using the CD3 TruCulture system (Part number 782-001202) by Myriad Rules Based Medicine (Austin, Tex.).
# [7] = test system: Ikaros; assay: Ikaros protein level in whole blood leukocyte subsets, flow cytometry; type: cell-based, human; settings: 1, 10, 100 nM, 18 hrs; CD19+ B cells, CD3+ T cells, CD14+ monocytes, granulocytes
# Protocol: (§4) Human heparinized whole blood from normal healthy volunteers (Bioreclamation, Westbury, N.Y.) was treated with 0.1% DMSO and Compound 1A (1, 10, 100 nM) for 18 hrs at 37° C., 5% CO2. After 18 hrs, the blood was lysed and fixed with 1× Lyse/Fix Buffer (BD Biosciences) for 10 minutes at 37° C. Washed cells with cold PBS and cells were first multicolor stained with mouse anti-human CD3-PE mAb, mouse anti-human CD19-APC mAb and mouse anti-human-CD14-PerCP mAb (all from BD Biosciences) to identify CD3+ T cells, CD19+ B cells and CD14+ monocytes, respectively. The cells were then permeabilized by adding BD Perm/Wash Buffer I. Blocked non-specific binding by added FcR Blocking Reagent (Miltenyi Biotech) for 10 minutes prior to staining for intracellular Aiolos or Ikaros content. The cells were then stained with rabbit anti-human Aiolos polyclonal Ab (Santa Cruz, 1:200 dilution in Perm/Wash Buffer) or anti-human Ikaros polyclonal Ab (Santa Cruz, 1:50 dilution in Perm/Wash Buffer), followed by a goat-anti-rabbit mAb-AF488 Ab (Invitrogen, at 1:400 dilution in Perm/Wash Buffer) to test the intracellular Aiolos or Ikaros levels. […] Aiolos and Ikaros protein levels in B cells, T cells, monocytes and granulocytes were analyzed by FACSCanto with FACSDiva 6 (BD Biosciences) based on the gating of CD3+ cells, CD19+ cells, CD14+ cells and granulocytes (FSC/SSC). […]
# [8] = test system: Aiolos; assay: B cell intracellular Aiolos after single doses in healthy volunteers; type: in vivo, human
# Protocol: as §3
# [9] = test system: Aiolos; assay: Aiolos protein level in whole blood leukocyte subsets, flow cytometry; type: cell-based, human; settings: 1, 10, 100 nM, 18 hrs; CD19+ B cells, CD3+ T cells, CD14+ monocytes, granulocytes
# Protocol: as §4
# [10] = test system: Aiolos; assay: T cell intracellular Aiolos after single doses in healthy volunteers; type: in vivo, human; settings: 12 hours postdose
# Protocol: as §3
structure (smiles),measurement,setting,value
"O=C1CC[C@H](N2Cc3c(OCc4ccc(CN5CCOCC5)cc4)cccc3C2=O)C(=O)N1 [Compound 1A, (S)-3-[4-(4-morphlin-4-ylmethylbenzyloxy)-1-oxo-1,3-dihydro-isoindo-2-yl]piperidine-2,6-dione]","maximum IL-1β response, mean percent of baseline",[1]; 0.3 mg,42.2%
same,"maximum IL-1β response, mean percent of baseline",[1]; 1 mg,21.8%
same,"maximum IL-1β response, mean percent of baseline",[1]; 2 mg,16.3%
same,IC50,[2],~10 nM
same,IC50,[3],~10 nM
same,"peripheral blood T cell counts, percent of baseline","[4]; 0.3 mg, Day 2",84.1%
same,"peripheral blood T cell counts, percent of baseline","[4]; 1 mg, Day 2",79.4%
same,"peripheral blood T cell counts, percent of baseline","[4]; 2 mg, Day 5",73.8%
same,Emax,"[5]; 48 h, 1 mg, Day 2, read-out: absolute CD19+ cells, mean percent of baseline (maximum response)",67.3%
same,Emax,"[5]; 72 h, 0.3 mg, Day 3, read-out: absolute CD19+ cells, mean percent of baseline (maximum response)",73.5%
same,Emax,"[5]; 72 h, 2 mg, Day 3, read-out: absolute CD19+ cells, mean percent of baseline (maximum response)",51.3%
same,"maximum IL-2, mean percent of baseline",[6]; 0.3 mg,315%
same,"maximum IL-2, mean percent of baseline",[6]; 1 mg,973%
same,"maximum IL-2, mean percent of baseline",[6]; 2 mg,915%
same,Ikaros protein levels in whole blood leukocyte subsets,[7],reduced
same,"B cell intracellular Aiolos, percent of baseline","[8]; 0.3 mg single dose, 24 hours postdose",24.8%
same,"B cell intracellular Aiolos, percent of baseline","[8]; 1 mg single dose, 12 hours postdose",28.2%
same,"B cell intracellular Aiolos, percent of baseline","[8]; 2 mg single dose, 12 hours postdose",25.0%
same,Aiolos protein levels in whole blood leukocyte subsets,[9],reduced
same,"T cell intracellular Aiolos, percent of baseline",[10]; 1 mg single dose,22.3%
same,"T cell intracellular Aiolos, percent of baseline",[10]; 2 mg single dose,26.1%
